Values after ≈ are worked out from the molar mass of the structure shown. Where two headings read alike, the source gives them in different places.
Columns and labels:
in vivo = conditions: mouse, male ddY mice, 10 days
Procedure: Male mice of ddY strain, 4 weeks old, were used with 10 animals at a group. Test compounds suspended in 0.5% carboxymethyl cellulose were administered per os (p.o.) in mice. In the case of intraveneous (i.v.) administration, test compounds were solved in 0.1N-HCl solution and neutralized with 0.1N-NaOH solution.

[1] = test system: Bacillus subtilis ATCC6633; experiment: MIC, twofold agar dilution; assay type: cell-based; conditions: Gram +, 10^6 cells/ml, 18 hrs, 37° C., read-out: Minimum inhibitory concentration (MIC)
Procedure: (§1) Minimum inhibitory concentrations (MIC) were determined by the twofold agar dilution method (Chemotherapy, 29(1), 76(1981)). Overnight cultures in Mueller-Hinton broth were suspended by buffered saline gelatine. One loopful of the bacterial suspension (10^6 or 10^8 colony-forming units/ml) was incubated onto the test compound-containing plates. The plates were incubated for 18 hrs. at 37° C. The MIC was the lowest concentration of the drug that inhibited visible growth.

Proteus vulgalis OX-19 = experiment: MIC, twofold agar dilution; assay type: cell-based; conditions: Gram -; 10^6 cells/ml; 18 hrs, 37° C.; read-out: Minimum inhibitory concentration (MIC)
Procedure: as §1

[2] = test system: Staphylococcus aureus FAD208PJC-1; experiment: MIC, twofold agar dilution; assay type: cell-based; conditions: FAD208PJC1, Gram +, 10^6 cells/ml, 18 hrs, 37° C., read-out: Minimum inhibitory concentration (MIC)
Procedure: as §1

[3] = test system: Enterobacter cloaceas 963; experiment: MIC, twofold agar dilution; assay type: cell-based; conditions: Gram -, 10^6 cells/ml, 18 hrs, 37° C., read-out: Minimum inhibitory concentration (MIC)
Procedure: as §1

[4] = test system: Serratia marcescens IAM1184; experiment: MIC, twofold agar dilution; assay type: cell-based; conditions: Gram -, 10^6 cells/ml, 18 hrs, 37° C., read-out: Minimum inhibitory concentration (MIC)
Procedure: as §1

[5] = test system: Streptococcus pyogenes Cook; experiment: MIC, twofold agar dilution; assay type: cell-based; conditions: Gram +, 10^6 cells/ml, 18 hrs, 37° C., read-out: Minimum inhibitory concentration (MIC)
Procedure: as §1

[6] = test system: Proteus mirabilis IFO3849; experiment: MIC, twofold agar dilution; assay type: cell-based; conditions: Gram -, 10^6 cells/ml, 18 hrs, 37° C., read-out: Minimum inhibitory concentration (MIC)
Procedure: as §1

[7] = test system: Staphylococcus aureus Terajima; experiment: MIC, twofold agar dilution; assay type: cell-based; conditions: Gram +, 10^6 cells/ml, 18 hrs, 37° C., read-out: Minimum inhibitory concentration (MIC)
Procedure: as §1

Proteus morganii IFO3848 = experiment: MIC, twofold agar dilution; assay type: cell-based; conditions: Morganella morganii, Gram -, 10^6 cells/ml, 18 hrs, 37° C., read-out: Minimum inhibitory concentration (MIC)
Procedure: as §1

[8] = test system: Pseudomonas aeruginosa PAO7; experiment: MIC, twofold agar dilution; assay type: cell-based; conditions: Gram -, 10^6 cells/ml, 18 hrs, 37° C., read-out: Minimum inhibitory concentration (MIC)
Procedure: as §1

[9] = test system: Salmonella typhimurium IID 971; experiment: MIC, twofold agar dilution; assay type: cell-based; conditions: Salmonella enterica; Gram -; 10^6 cells/ml; 18 hrs, 37° C.; read-out: Minimum inhibitory concentration (MIC)
Procedure: as §1

[10] = test system: Pseudomonas aeruginosa IFO3445; experiment: MIC, twofold agar dilution; assay type: cell-based; conditions: Gram -, 10^6 cells/ml, 18 hrs, 37° C., read-out: Minimum inhibitory concentration (MIC)
Procedure: as §1

[11] = test system: Escherichia coli NIHJ-JC-2; experiment: MIC, twofold agar dilution; assay type: cell-based; conditions: NIHJJC2, Gram -, 10^6 cells/ml, 18 hrs, 37° C., read-out: Minimum inhibitory concentration (MIC)
Procedure: as §1

[12] = test system: Salmonella schottmulleri 0006; experiment: MIC, twofold agar dilution; assay type: cell-based; conditions: Gram -, 10^6 cells/ml, 18 hrs, 37° C., read-out: Minimum inhibitory concentration (MIC)
Procedure: as §1

[13] = test system: Klebsiella pneumoniae PCI-602; experiment: MIC, twofold agar dilution; assay type: cell-based; conditions: read-out: Minimum inhibitory concentration (MIC)
Procedure: as §1

[14] = test system: Escherichia coli K-12 C600; experiment: MIC, twofold agar dilution; assay type: cell-based; conditions: K12C600, Gram -, 10^6 cells/ml, 18 hrs, 37° C., read-out: Minimum inhibitory concentration (MIC)
Procedure: as §1

Proteus vulgalis HX-19 = experiment: MIC, twofold agar dilution; assay type: cell-based; conditions: Gram -; 10^6 cells/ml; 18 hrs, 37° C.; read-out: Minimum inhibitory concentration (MIC)
Procedure: as §1

[15] = test system: Enterobacter aerogenes ATCC13048; experiment: MIC, twofold agar dilution; assay type: cell-based; conditions: Klebsiella aerogenes, Gram -, 10^6 cells/ml, 18 hrs, 37° C., read-out: Minimum inhibitory concentration (MIC)
Procedure: as §1

[16] = test system: Staphylococcus aureus MS-353; experiment: MIC, twofold agar dilution; assay type: cell-based; conditions: MS353, Gram +, 10^6 cells/ml, 18 hrs, 37° C., read-out: Minimum inhibitory concentration (MIC)
Procedure: as §1

[17] = test system: Pseudomonas aeruginosa NCTC10490; experiment: MIC, twofold agar dilution; assay type: cell-based; conditions: Gram -, 10^6 cells/ml, 18 hrs, 37° C., read-out: Minimum inhibitory concentration (MIC)
Procedure: as §1

Proteus rettgeri IFO3850 = experiment: MIC, twofold agar dilution; assay type: cell-based; conditions: Providencia rettgeri, Gram -, 10^6 cells/ml, 18 hrs, 37° C., read-out: Minimum inhibitory concentration (MIC)
Procedure: as §1

[18] = test system: Micrococcus luteus ATCC9341; experiment: MIC, twofold agar dilution; assay type: cell-based; conditions: Gram +, 10^6 cells/ml, 18 hrs, 37° C., read-out: Minimum inhibitory concentration (MIC)
Procedure: as §1

[19] = test system: Salmonella enteritidis G14; experiment: MIC, twofold agar dilution; assay type: cell-based; conditions: Salmonella enterica, Gram -, 10^6 cells/ml, 18 hrs, 37° C., read-out: Minimum inhibitory concentration (MIC)
Procedure: as §1

[20] = test system: Pseudomonas aeruginosa ATCC9027; experiment: MIC, twofold agar dilution; assay type: cell-based; conditions: Gram -, 10^6 cells/ml, 18 hrs, 37° C., read-out: Minimum inhibitory concentration (MIC)
Procedure: as §1

Salmonella typhi 901 = experiment: MIC, twofold agar dilution; assay type: cell-based; conditions: Salmonella enterica, 18 h, read-out: Minimum inhibitory concentration (MIC)
Procedure: as §1

[21] = test system: Salmonella paratyphi 1015; experiment: MIC, twofold agar dilution; assay type: cell-based; conditions: Salmonella enterica, 18 h, read-out: Minimum inhibitory concentration (MIC)
Procedure: as §1

[22] = Urinary excretion in rats after oral dosing (bioassay with Escherichia coli NIHJ-JC-2); assay type: in vivo, SD strain); conditions: rat, male SD rats, 20 mg/Kg per os, fasted 24 hr; for concentration at 6 h: urine 0-6 hr, read-out: Drug Concentration in Urine 0-6 (hr); for dose excreted at 24 h: urine 0-24 hr, read-out: Rate of Urinary Excretion 0-24 (hr); for concentration at 24 h: urine 6-24 hr, read-out: Drug Concentration in Urine 6-24 (hr)
Procedure: Male rats of SD strain, weighing 180-210 g, were used 8 animals at a group. Test compounds suspended in 0.5% carboxymethyl cellulose were administered per os to 24 hr-fasted rats at dose of 20 mg/Kg. Urine was pooled from 0 to 6 hrs. and 6 to 24 hrs, and urinary excretion was measured by bioassay using Escherichia coli NIHJ-JC-2.
The assay method employed was the cup-plate method using
Escherichia coli NIHJ-JC-2. Urine was appropriately diluted with 1/15M phosphate buffer pH7.0, before assay if necessary. Standard calibration lines were made in 1/15M phosphate buffer pH7.0.

[23] = iv, i.v., read-out: LD50 i.v. (95% Confidence Limit)

Which LD50 at 240 h (in vivo; [23]) does the source give for `CCn1cc(C(=O)O)c(=O)c2cc(F)c(N3CCNC(C)C3)cc21` (centres unmarked) [Example 1, 1-Ethyl-6-fluoro-1,4-dihydro-7-(3-methyl-1-piperazinyl)-4-oxoquinoline-3-carboxylic acid] here?
The LD50 at 240 h was 348 mg/kg.

And the LD50 at 240 h (in vivo; po, p.o., read-out: LD50 p.o.)?
Its LD50 at 240 h is > 4000 mg/kg.

What about the MIC [1] of the same molecule?
The MIC was 0.1 µg/mL (≈ 0.3 µM).

What about the MIC (Proteus vulgalis OX-19) of the same molecule?
The MIC was 0.05 µg/mL (≈ 0.15 µM).

What about the MIC [2] of the same molecule?
Its MIC is 0.2 µg/mL (≈ 0.6 µM).

What about the MIC [3] of the same molecule?
The MIC was 0.1 µg/mL (≈ 0.3 µM).

What about the MIC [4] of the same molecule?
The MIC was 0.2 µg/mL (≈ 0.6 µM).

What about the MIC [5] of the same molecule?
Its MIC is 3.13 µg/mL (≈ 9.39 µM).

And the MIC [6]?
Its MIC is 0.39 µg/mL (≈ 1.17 µM).

What about the MIC [7] of the same molecule?
The MIC was 0.39 µg/mL (≈ 1.17 µM).

What about the MIC (Proteus morganii IFO3848) of the same molecule?
Its MIC is 0.025 µg/mL (≈ 0.075 µM).

And the MIC [8]?
The MIC was 0.78 µg/mL (≈ 2.34 µM).

And the MIC [9]?
Its MIC is 0.1 µg/mL (≈ 0.3 µM).

What about the MIC [10] of the same molecule?
Its MIC is 0.78 µg/mL (≈ 2.34 µM).

What about the MIC [11] of the same molecule?
Its MIC is 0.1 µg/mL (≈ 0.3 µM).

And the MIC [12]?
Its MIC is 0.025 µg/mL (≈ 0.075 µM).

And the MIC ([13]; PCI602, Gram -, 10^6 cells/ml, 18 hrs, 37° C.)?
The MIC was 0.025 µg/mL (≈ 0.075 µM).

What about the MIC [14] of the same molecule?
The MIC was 0.1 µg/mL (≈ 0.3 µM).

What about the MIC (Proteus vulgalis HX-19) of the same molecule?
Its MIC is 0.025 µg/mL (≈ 0.075 µM).

And the MIC [15]?
Its MIC is 0.1 µg/mL (≈ 0.3 µM).

What about the MIC [16] of the same molecule?
Its MIC is 0.39 µg/mL (≈ 1.17 µM).

What about the MIC [17] of the same molecule?
Its MIC is 0.39 µg/mL (≈ 1.17 µM).

What about the MIC (Proteus rettgeri IFO3850) of the same molecule?
Its MIC is 0.1 µg/mL (≈ 0.3 µM).

And the MIC [18]?
Its MIC is 25 µg/mL (≈ 75 µM).

What about the MIC [19] of the same molecule?
The MIC was 0.1 µg/mL (≈ 0.3 µM).

And the MIC [20]?
Its MIC is 0.1 µg/mL (≈ 0.3 µM).

And the MIC (Salmonella typhi 901)?
Its MIC is 0.05 µg/mL (≈ 0.15 µM).

What about the MIC [21] of the same molecule?
Its MIC is 0.0125 µg/mL (≈ 0.0375 µM).

What about the concentration at 6 h [22] of the same molecule?
The concentration at 6 h was 514 µg/mL.

And the dose excreted at 24 h [22]?
Its dose excreted at 24 h is 30%.

And the concentration at 24 h [22]?
Its concentration at 24 h is 28 µg/mL.

What does the source list for `CCn1cc(C(=O)O)c(=O)c2cc(F)c(N3CCNC(C)C3)c(F)c21` (centres unmarked) [Example 4, 1-Ethyl-6,8-difluoro-1,4-dihydro-7-(3-methyl-1-piperazinyl)-4-oxoquinoline-3-carboxylic acid]?
LD50 at 240 h (in vivo; [23]): 246 mg/kg; LD50 at 240 h (in vivo; po, p.o., read-out: LD50 p.o.): > 4000 mg/kg; MIC [1]: 0.1 µg/mL (≈ 0.285 µM); MIC (Proteus vulgalis OX-19): 0.05 µg/mL (≈ 0.142 µM); MIC [2]: 0.38 µg/mL (≈ 1.08 µM); MIC [3]: 0.1 µg/mL (≈ 0.285 µM); MIC [4]: 0.1 µg/mL (≈ 0.285 µM); MIC [5]: 3.13 µg/mL (≈ 8.91 µM); MIC [6]: 0.2 µg/mL (≈ 0.569 µM); MIC [7]: 0.78 µg/mL (≈ 2.22 µM); MIC (Proteus morganii IFO3848): 0.025 µg/mL (≈ 0.0712 µM); MIC [8]: 1.56 µg/mL (≈ 4.44 µM); MIC [9]: 0.05 µg/mL (≈ 0.142 µM); MIC [10]: 0.78 µg/mL (≈ 2.22 µM); MIC [11]: 0.05 µg/mL (≈ 0.142 µM); MIC [12]: 0.025 µg/mL (≈ 0.0712 µM); MIC ([13]; PCI602, 18 h): 0.0125 µg/mL (≈ 0.0356 µM); MIC [14]: 0.05 µg/mL (≈ 0.142 µM); MIC (Proteus vulgalis HX-19): 0.025 µg/mL (≈ 0.0712 µM); MIC [15]: 0.1 µg/mL (≈ 0.285 µM); MIC [16]: 0.78 µg/mL (≈ 2.22 µM); MIC [17]: 0.78 µg/mL (≈ 2.22 µM); MIC (Proteus rettgeri IFO3850): 0.05 µg/mL (≈ 0.142 µM); MIC [18]: 6.25 µg/mL (≈ 17.8 µM); MIC [19]: 0.05 µg/mL (≈ 0.142 µM); MIC [20]: 0.05 µg/mL (≈ 0.142 µM); MIC (Salmonella typhi 901): 0.0125 µg/mL (≈ 0.0356 µM); MIC [21]: 0.025 µg/mL (≈ 0.0712 µM); concentration at 6 h [22]: 659 µg/mL; dose excreted at 24 h [22]: 75%; concentration at 24 h [22]: 87 µg/mL

Reference: patent publication US4528287A, “6-Fluoro-1, 4-dihydro-4-oxo-7-substituted piperazinylquinoline-3-carboxylic acids and the method for preparing the same” (priority 1983, dated 1985)
